{
  "source": "patent US6610540B1",
  "about": "“Low oxygen culturing of central nervous system progenitor cells” (California Institute of Technology, priority 1998, dated 2003)",
  "test_system": "E12 mesencephalic precursor cultures",
  "test": "Dopaminergic / neuronal subtype differentiation of expanded mesencephalic precursor cultures (TH+ cell counts by immunohistochemistry)",
  "type": "cell-based, rat",
  "conditions": "under both oxygen conditions",
  "source_text": "Culture of CNS Stem Cells. Animals were housed and treated following NIH guidelines. Cells dissected from rat embryonic lateral ganglionic eminence (E14) or mesencephalon (E12) were mechanically dissociated, plated on plastic 24-well plates (Costar) or 12 mm glass cover slips (Carolina Biologicals) precoated with polyornithine/fibronectin, and grown in defined medium with bFGF (Studer et al., 1998; Johe et al., 1996). In general, bFGF was withdrawn from the medium after 4-6 days of culture. Clonal assays were carried out in plastic 48-well plates (Costar). In some studies, recombinant human (rh)EPO, rhVEGF165 or recombinant mouse (rm)FGF8b, or their neutralizing antibodies (all from R&D Systems) were added to cultures at the following concentrations: EPO 0.5 U/ml, EPO neutralizing antibody 10 μg/ml, FGF8 250 ng/ml, FGF8b neutralizing antibody 5 μg/ml, VEGF 50 ng/ml, VEGF neutralizing antibody 0.5 μg/ml. […]\nImmunohistochemistry. […] Appropriate fluorescence-tagged (Jackson Immunoresearch) or biotinylated (Vector Laboratories) secondary antibodies followed by metal-enhanced DAB reaction (Pierce) were used for visualization.\nCell Counts and Statistical Procedures. Uniform random sampling procedures were used for cell counts and quantified using the fractionator technique (Gundersen, et al., 1988). […] Data are expressed as mean±SEM.",
  "data": [
    {"substance": "sonic hedgehog", "values": [
      {"measurement": "effect on expanded mesencephalic precursors (dopaminergic neuron differentiation)", "result": "no effect"}
    ]}
  ]
}
